Assay results: article PMC7822874, “Chemoprotective antimalarials identified through quantitative high-throughput screening of Plasmodium blood and liver stage parasites” (Scientific Reports, 2021)
Read-outs that look alike come from different tables or passages of the source.

Columns and labels:
[1] = tested on: Plasmodium falciparum Dd2 asexual blood stage parasites; assay: microbe, parasite or virus in culture; set-up: species or system Plasmodium falciparum Dd2 in human erythrocytes; single determination (one 11-point concentration-response curve); conditions: Plasmodium falciparum, DD2, Erythrocyte, 72 h; read-out: AC50
[2] = tested on: P. berghei-ANKA-GFP-LucCON liver stage parasites in HepG2-A16-CD81EGFP cells; assay: P. berghei liver stage Pb-Luc assay, Method 1 (UCSD, 1536-well); format: cell-based, Plasmodium berghei; conditions: Plasmodium berghei, 48 h, P. berghei liver stage, average of 2 wells on a 1536 well plate; for activity at 1 µM: 1 µM compound treatment (10 mM stocks); for activity at 3 µM: 3 µM compound treatment (10 mM stocks)
HepG2-A16-CD81EGFP cells = conditions: average of 2 wells; for HepG2 1uM growth rep1 / HepG2 1uM growth rep2: HepG2, 1 µM compound treatment (10 mM stocks); for HepG2 1uM growth rep1 / HepG2 3uM growth rep1: replicate 1, normalized; for HepG2 1uM growth rep2 / HepG2 3uM growth rep2: replicate 2, normalized; for HepG2 3uM growth rep1 / HepG2 3uM growth rep2: HepG2, 3 µM compound treatment (10 mM stocks)
[3] = replicate 1, normalized, read-out: PbLuc 1uM growth rep1
[4] = replicate 2, normalized, read-out: PbLuc 1uM growth rep2
[5] = replicate 1, normalized, read-out: PbLuc 3uM growth rep1
[6] = replicate 2, normalized, read-out: PbLuc 3uM growth rep2

Row | SMILES | AC50 [1] [nM] | activity at 1 µM [2, 3] [%] | activity at 1 µM [2, 4] [%] | activity at 3 µM [2, 5] [%] | activity at 3 µM [2, 6] [%] | HepG2 1uM growth rep1 (HepG2-A16-CD81EGFP cells) [%] | HepG2 1uM growth rep2 (HepG2-A16-CD81EGFP cells) [%] | HepG2 3uM growth rep1 (HepG2-A16-CD81EGFP cells) [%] | HepG2 3uM growth rep2 (HepG2-A16-CD81EGFP cells) [%]
1 | O=C(Nc1ccc(S(=O)(=O)N2CCOCC2)cc1)c1cc(-c2cc(Cl)ccc2O)n[nH]1 [MLS000778989-01] | 2660 | 131 | 90 | 37 | 31 | 107 | 100 | 70 | 76
2 | CCOC(=O)C1CCN(C(=O)c2cc(C(C)(C)C)nn2Cc2ccccc2)CC1 [MLS000860456-01] | 4730 | 119 | 98 | 89 | 96 | 105 | 95 | 88 | 93
3 | COc1cc(O)c(C(CCN2CCCCC2)c2ccc(N(C)C)cc2)c(OC)c1 (stereo not drawn) [MLS000879496-01] | 2660 | 126 | 95 | 91 | 95 | 108 | 100 | 87 | 98
4 | COc1ccc(-n2nc(C(=O)NCC(=O)N3CCN(c4ccccc4OC)CC3)c3ccccc3c2=O)c(OC)c1 [MLS000936211-01] | 2110 | 82 | 118 | 90 | 112 | 89 | 88 | 92 | 89
5 | CCC(=O)N1CCc2cc(Br)cc(S(=O)(=O)N3CCCCC3CC)c21 (stereo not drawn) [MLS000936752-01] | 1060 | 89 | 100 | 89 | 116 | 106 | 96 | 87 | 93
6 | COc1cc(NC(=O)c2cc([N+](=O)[O-])ccc2NC(=O)CNC2CCCCC2C)cc(OC)c1 (stereo not drawn) [MLS000950459-01] | 5960 | 94 | 109 | 82 | 122 | 96 | 92 | 90 | 90
7 | N#Cc1c(N2CCN(c3ccc(F)cc3)CC2)nc(N)c2c(N)nc3c(c12)CC(=O)N3C1CC1 [MLS001003889-01] | 668 | 114 | 88 | 44 | 56 | 108 | 97 | 85 | 94
8 | CC(C)CCN(CCC(C)C)CC(O)Cn1c2ccccc2c(=O)c2ccccc21 (stereo not drawn) [MLS001030199-01] | 1880 | 128 | 103 | 76 | 87 | 105 | 96 | 84 | 94
9 | CCCC(C)C(=O)Nc1ncc(S(=O)(=O)c2ccc([N+](=O)[O-])cc2)s1 (stereo not drawn) [MLS001034555-01] | 5960 | 109 | 117 | 105 | 136 | 95 | 92 | 93 | 94
10 | O=C(CSc1nc(Nc2ccccc2)nc(N2CCOCC2)n1)Nc1cc(Cl)ccc1O [MLS001035450-01] | 2370 | 97 | 93 | 67 | 102 | 100 | 92 | 83 | 88
11 | COc1cccc(NC(=O)CN(C)C(=O)c2ccc(-c3cccc(C(F)(F)F)c3)o2)c1 [MLS001071804-01] | 596 | 153 | 125 | 107 | 104 | 105 | 98 | 84 | 96
